Measured values: patent US7956047B2, “Use of chondroitin sulphate E (CS-E) for the treatment of diseases or conditions related to collagen fibril formation” (AnaMar AB, priority 2004, dated 2011)
“Also recorded” adds a separate entry of the source.

Legend:
[1] = test system: collagen monomers; conditions: literature / manuscript of the applicant's laboratory; cited from earlier work
[2] = test system: collagen fibril formation (collagen monomers, collagen type I / collagen type II); assay: In vitro collagen fibrillogenesis assay (turbidity / light scattering); assay type: biochemical, bovine; conditions: for effect on collagen fibril formation (CFF): purified free CS chains added to collagen monomers (330 nM), pH 7.4, FIG. 2 panel A
Experimental: Bovine pepsin-extracted collagen type I was purchased from Vitrogen. Collagen II was pepsin extracted from bovine tracheal cartilage, as previously described (Vogel, K. G., Paulsson, M., and Heinegård, D. (1984) Biochem. J. 223, 587-597). The fibrillogenesis assay has been previously described (Hedborn, E. and Heinegård, D. (1989) J. Biol. Chem. 264, 6898-6905).
Briefly, a solution of collagen monomers (330 nM) was brought to neutral pH by addition of an appropriate volume of 0.012M NaOH, and buffered by 20 mM HEPES, 150 mM NaCl at pH 7.4. Perlecan fragment was added at concentrations equimolar to that of collagen or at one tenth the molar concentration of collagen. The sample was mixed vigorously and briefly, and transferred to a cuvette. The sample was incubated at 37° C. (collagen type I) or 35° C. (collagen type II) in water-jacketed cuvettes in the spectrophotometer, and the absorbance due to light scattering at 400 nm (collagen type I) or 313 nm (collagen type II) was monitored over a duration of 5-18 hrs. The increased absorbance/turbidity depends on increasing fibre formation.
Fibrillogenesis was performed as described above. CS-E from squid was purchased from Calbiochem. 0.13 μg/ml corresponding to the molar concentration of GAG chains in previous experiments using recombinant perlecan domain I variants with HS/CS (PG IB) (33 nM).

Molecule	effect on formation of collagen fibres from monomers in vitro [1]	concentration at which the stimulatory effect on fibril formation reaches saturation ([2]; FIG. 2 panel B)	dose dependence of the stimulatory effect on collagen fibril formation ([2]; FIG. 2 panel B)	effect on collagen fibril formation (CFF) [2]
cartilage oligomeric matrix protein [COMP]	accelerates the formation of fibres from monomers	–	–	–
chondroitin sulphate E [CS-E]	–	30 µg/mL	dose-dependent	effective in collagen fibril formation; also recorded: positive result on collagen fibril formation; also recorded: dramatic effects on fibril formation
chondroitin-6 sulphate [CS-6, reference compound]	–	–	–	none of the other CS variants had any significant effect; also recorded: none of the other tested chondroitin sulphate variants (CS-D and CS-6) gives a positive result; also recorded: neither CS-6 nor CS-D had any effect
fibromodulin (protein, UniProt Q06828 19-376, looked up) Fibromodulin: QYEDDPHWWFHYLRSQQSTYYDPYDPYPYETYEPYPYGVDEGPAYTYGSPSPPDPRDCPQECDCPPNFPTAMYCDNRNLKYLPFVPSRMKYVYFQNNQITSIQEGVFDNATGLLWIALHGNQITSDKVGRKVFSKLRHLERLYLDHNNLTRMPGPLPRSLRELHLDHNQISRVPNNALEGLENLTALYLQHNEIQEVGSSMRGLRSLILLDLSYNHLRKVPDGLPSALEQLYMEHNNVYTVPDSYFRGAPKLLYVRLSHNSLTNNGLASNTFNSSSLLELDLSYNQLQKIPPVNTNLENLYLQGNRINEFSISSFCTVVDVVNFSKLQVLRLDGNEIKRSAMPADAPLCLRLASLIEI	slow down fibre formation in vitro	–	–	–
decorin (protein, UniProt P07585 31-359, looked up) Decorin: DEASGIGPEVPDDRDFEPSLGPVCPFRCQCHLRVVQCSDLGLDKVPKDLPPDTTLLDLQNNKITEIKDGDFKNLKNLHALILVNNKISKVSPGAFTPLVKLERLYLSKNQLKELPEKMPKTLQELRAHENEITKVRKVTFNGLNQMIVIELGTNPLKSSGIENGAFQGMKKLSYIRIADTNITSIPQGLPPSLTELHLDGNKISRVDAASLKGLNNLAKLGLSFNSISAVDNGSLANTPHLRELHLDNNKLTRVPGGLAEHKYIQVVYLHNNNISVVGSSDFCPPGHNTKKASYSGVSLFSNPVQYWEIQPSTFRCVYVRSAIQLGNYK	slow down fibre formation in vitro	–	–	–
